Assay results reported in patent publication US5510356A, “Bisquinolines and processes for their production and use to treat malaria” (priority 1991, dated 1996).
Entries after “also recorded” stand apart in the source; their conditions may differ.

Columns and labels:
[1] = system: P. falciparum clone D-6 (Sierra Leone); type: cell-based, Plasmodium falciparum; details: D-6 clone (resistant to mefloquine)
Method: (§1) In vitro activity against P. falciparum was determined using a modification of the semiautomated microdilution technique of Desjardins et al. (1979) and Milhous et al. (1985). Two P. falciparum malaria parasite clones, designated as Sierra Leone (D-6) and Indochina (W-2), are used in susceptibility testing. The former is resistant to mefloquine, and the latter to CQ, pyrimethamine, sulfadoxine, and quinine. Test compounds are dissolved in dimethylsulfoxide, and solutions serially diluted with culture media. Erythrocytes with 0.25 to 0.5% parasitemia are added to each well of a 96-well microdilution plate to give a final hematocrit of 1.5%. […] Results are reported as […] (ng/mL) values. For a complete description of this assay, see Milhous et al. (1985) and Lin et al. (1987).

[2] = system: P. falciparum clone W-2 (Indochina); type: cell-based, Plasmodium falciparum
Method: as §1

[3] = system: P. berghei (strain KBG 173); assay: In vivo activity against P. berghei in mice, single subcutaneous dose 3 days after infection; design: species or system Plasmodium berghei; mice
Method: In vivo activity against P. berghei was obtained against a drug-sensitive strain of P. berghei (strain KBG 173) (Osdene et al., 1967). Each test compound is administered subcutaneous to five male mice per dilution in a single subcutaneous dose 3 days after infection. Results are expressed in T-C values which indicate the mean survival time of the treated mice beyond that of the control animals; untreated mice survive on average 6.2 days. Compounds are classified as active (A) when the mean survival time of the treated mice is twice that of the controls (>6.2 days), and curative (C) when one or more test animals live 60 days post-infection. Deaths from 0-2 days post-treatment are attributed to toxicity (T).

P. falciparum = assay: In vitro activity against P. falciparum (both clones, D-6 and W-2); type: cell-based, Plasmodium falciparum; details: for Resistance Index: IC50 (W2)/IC50 (D6) ratio; for IC50: Plasmodium falciparum, clone not specified; for antimalarial activity (in words): general statement, refers to Table I
Method: as §1

CQ-resistant malaria = details: cited from earlier work; for activity against malaria / CQ-resistant malaria (in words): literature; for duration of action / toxicity: compared to CQ, Li et al., 1981a, Lin et al., 1982
P. berghei = details: cited from earlier work
[4] = 40 mg/kg s.c., single dose 3 days post infection, n = 5
[5] = 160 mg/kg s.c., single dose 3 days post infection, n = 5
[6] = 640 mg/kg s.c., single dose 3 days post infection, n = 5

Compound | P. falciparum IC50 (nM) D-6 [1] [nM] | P. falciparum IC50 (nM) W-2 [2] [nM] | in vivo activity against P. berghei (in words) [3] | P. berghei T-C [3, 4] [days] | Resistance Index (P. falciparum) | IC50 (P. falciparum) [nM] | activity against malaria / CQ-resistant malaria (in words) (CQ-resistant malaria) | P. berghei T-C [3, 5] [days] | further results
Clc1ccc2c(N[C@@H]3CCCC[C@H]3Nc3ccnc4cc(Cl)ccc34)ccnc2c1 (relative stereo) [Compound 3, ±-trans-N^1,N^2 -Bis (7-chloroquinolin-4-Yl) cyclohexane-1,2-diamine] | 1.0 | 1.4 | either active or curative | 8.5 | 1.4 | < 6 |  |  | mice cured ([3]; 160 mg/kg): 4/5; mice cured ([3]; 320 mg/kg): 5/5; in vitro activity against P. falciparum (in words) (P. falciparum): most potent bisquinoline in vitro; antimalarial activity (in words) (P. falciparum): exceptional activity
Clc1ccc2c(NN3CCN(Nc4ccnc5cc(Cl)ccc45)CC3)ccnc2c1 [1,4-bis(7-chloro-4-quinolylamino)piperazine] |  |  |  |  |  |  | active against malaria |  | activity against P. berghei in mice, compared with CQ (P. berghei; mice, Singh et al., 1971): significantly more effective than is CQ against P. berghei in mice
CCN(CC)CCCC(C)Nc1ccnc2cc(Cl)ccc12 (stereo not shown) [CQ, chloroquine, reference compound] |  |  |  |  | 11.2 |  |  |  | P. berghei T-C ([3]; CQ, 40 mg/kg s.c., average of ten best data sets from WRAIR): 8.7 days
CC(CNc1ccnc2cc(Cl)ccc12)Nc1ccnc2cc(Cl)ccc12 (stereo not shown) [Compound 2, N1,N2 -Bis(7-chloroquinolin-4-yl)propane1,2-diamine] | 3.5 | 3.9 | either active or curative | 3.4 | 1.1 | < 6 |  | 5.7 | antimalarial activity (in words) (P. falciparum): improved activity
Clc1ccc2c(NCCCNc3ccnc4cc(Cl)ccc34)ccnc2c1 [Compound 4, N^1,N^3 -Bis(7-chloroquinolin-4-yl)propane1,3-diamine] | 15.1 | 82.9 | without activity in vivo; also recorded: inactive in both screens | 0.2 | 5.5 |  |  | 0.4 | P. berghei T-C [3, 6]: 1.2 days; in vitro activity against P. falciparum (in words) (P. falciparum): approximately an order of magnitude less potent in vitro; also recorded: inactive in both screens
Clc1ccc2c(NCCCCNc3ccnc4cc(Cl)ccc34)ccnc2c1 [Compound 5, N1,N4 -Bis(7-chloroquinolin-4-yl)butane-1,4-diamine] | 387 | 80.9 | without activity in vivo; also recorded: inactive in both screens | 0.5 | 0.2 |  |  | 2.3 | P. berghei T-C [3, 6]: 5.6 days; in vitro activity against P. falciparum (in words) (P. falciparum): approximately an order of magnitude less potent in vitro; also recorded: inactive in both screens
Clc1ccc2c(NCCCCCNc3ccnc4cc(Cl)ccc34)ccnc2c1 [Compound 6, N^1, N^5 -Bis(7-chloroquinolin-4-yl)pentane-1,5-diamine] | 2.5 | 3.8 | either active or curative | 1.0 | 1.5 | < 6 |  | 5.1 | 
CC(CCCNc1ccnc2cc(Cl)ccc12)CNc1ccnc2cc(Cl)ccc12 (stereo not shown) [Compound 7, N^1, N^5 -Bis(7-chloroquinolin-4-yl)-2-methylpentane-1,5-diamine] | 2.7 | 3.0 | either active or curative | 1.2 | 1.1 | < 6 |  | 3.6 | antimalarial activity (in words) (P. falciparum): improved activity
Clc1ccc2c(NCCCCCCNc3ccnc4cc(Cl)ccc34)ccnc2c1 [Compound 8, N^1, N^6 -Bis(7-chloroquinolin-4-yl)hexane-1,6-diamine] | 21.1 | 23.4 |  | 0.4 | 1.1 |  |  | 3.9 | 
Clc1ccc2c(NCCCCCCCNc3ccnc4cc(Cl)ccc34)ccnc2c1 [Compound 9, N^1, N^7 -Bis(7-chloroquinolin-4-Yl)heptane-1,7-diamine] | 1.9 | 4.3 |  | 2.6 | 2.3 | < 6 |  | 7.2 | 
Clc1ccc2c(NCCCCCCCCNc3ccnc4cc(Cl)ccc34)ccnc2c1 [Compound 10, N^1, N^8 -Bis(7-chloroquinolin-4-yl)octane-1,8diamine] | 5.6 | 3.1 |  | -0.2 | 0.6 | < 6 |  | 1.0 | 
Clc1ccc2c(NCCCCCCCCCNc3ccnc4cc(Cl)ccc34)ccnc2c1 [Compound 11, N^1, N^9 -Bis(7-chloroquinolin-4-yl)nonane-1,9-diamine] | 3.0 | 2.3 |  | 3.1 | 0.8 | < 6 |  | 7.4 | P. berghei activity class (A = active, C = curative, with number of mice) ([3]; 640 mg/kg s.c., single dose, n = 5): A (active (A) when the mean survival time of the treated mice is twice that of the controls (>6.2 days))
Clc1ccc2c(NCCCCCCCCCCNc3ccnc4cc(Cl)ccc34)ccnc2c1 [Compound 12, N^1, N^10 -Bis(7-chloroquinolin-4-yl)decane-l,10-diamine] | 5.7 | 3.4 |  | 0.2 | 0.6 |  |  | 0.2 | P. berghei T-C [3, 6]: 0.6 days
Clc1ccc2c(NCCCCCCCCCCCCNc3ccnc4cc(Cl)ccc34)ccnc2c1 [Compound 13, N^1 N^12 -Bis(7-chloroquinolin-4-yl)dodecane-1,12-diamine] | 59.7 | 30.8 | without activity in vivo; also recorded: inactive in both screens | 0.0 | 0.5 |  |  | -0.2 | P. berghei T-C [3, 6]: 0.0 days; in vitro activity against P. falciparum (in words) (P. falciparum): approximately an order of magnitude less potent in vitro; also recorded: inactive in both screens
Clc1ccc2c(N3CCN(CCCN4CCN(c5ccnc6cc(Cl)ccc56)CC4)CC3)ccnc2c1 [PQ, piperaquine] | 8.3 | 16.1 |  |  | 1.9 |  | active against malaria; also recorded: very effective against CQ-resistant malaria in China |  | duration of action (CQ-resistant malaria): longer duration of action; toxicity (CQ-resistant malaria): less toxicity when compared to CQ
CCN(CC)Cc1cc(Nc2ccnc3cc(Cl)ccc23)ccc1O [amodiaquine] |  |  |  |  |  |  | active to various extents against CQ-resistant malaria |  | 
OC(CN1CCN(c2ccnc3cc(Cl)ccc23)CC1)CN1CCN(c2ccnc3cc(Cl)ccc23)CC1 [hydroxypiperaquine] |  |  |  |  |  |  | active against malaria; also recorded: very effective against CQ-resistant malaria in China |  | duration of action (CQ-resistant malaria): longer duration of action; toxicity (CQ-resistant malaria): less toxicity when compared to CQ
OC(c1cc(C(F)(F)F)nc2c(C(F)(F)F)cccc12)C1CCCCN1 (stereo not shown) [mefloquine] |  |  |  |  |  |  | active to various extents against CQ-resistant malaria |  | 
C=C[C@H]1C[N@@]2CC[C@H]1C[C@H]2[C@H](O)c1ccnc2ccc(OC)cc12 [quinine] |  |  |  |  |  |  | active to various extents against CQ-resistant malaria |  | 
CCN(CC)Cc1cc(Nc2ccnc3cc(Cl)ccc23)ccc1OC(=O)CCC(=O)Oc1ccc(Nc2ccnc3cc(Cl)ccc23)cc1CN(CC)CC [succinic acid diester of amodiaquine] |  |  |  |  |  |  | inactive against malaria |  | 
dichloroquinazine |  |  |  |  |  |  | active against CQ-resistant falciparum malaria |  | resistance of P. berghei (P. berghei; CQ-resistant strain of P. berghei, Warhurst, 1966): Resistance to dichloroquinazine, however, is noted for a CQ-resistant strain of P. berghei
